Assays:
Format in all cases: in vivo
[1] = tested on: Human Subjects; test: Sleep study by polysomnography (PSG) after VNO stimulation, randomized single-blind placebo-controlled; conditions: for Overall effect on sleep and arousal: conclusion from PSG and self-reports
Method: Three methods were used to assess sleep: 1) sleep study, 2) quantitative electroencephalography, and 3) psychometric tests. The study was carried out using a randomized, single-blind, placebo-controlled experimental design.
Screening was performed several days prior to the study session via clinical interviews and examination. Additionally, Hamilton A and D, and Covy tests were administered to determine concomitant anxiety or affective disorders. A thorough questionnaire regarding sleep habits and sleep pathologies was also administered to each subject. Criteria for inclusion in the study included subjects with a score of 12 or less on the Covy test and a score of 8 or less on the Hamilton A and Hamilton D tests, and absence of any medical or psychiatric conditions. Ten physically and mentally healthy young male adult subjects were selected for the study. All of them Were normal sleepers (i.e., they reported no difficulty in falling or remaining asleep at night, slept between 6 and 8.5 hours per night, and were alert during the daytime).
On the day of the study, they were instructed to refrain from napping, to avoid consuming alcohol or caffeine containing beverages, and to maintain a uniform daily level of activity. The ten subjects were divided into two groups of five, with the test compound being administered to one group and the other acting as a control.
The test compound was administered to the VNO using a manual vomeronasal applicator (MVA). This applicator comprises an air supply, delivering a 1 ml pulse of air; a valve system passing that pulse of air either through a chamber containing 30 mg of USP cotton that has been previously soaked with 1 ml of a 1 mg/ml solution of the test compound, estra-1,3,5(10),16-tetraen-3-yl acetate, in ethanol and allowed to dry overnight, or bypassing that chamber; a one-way flow valve; and a nozzle capable of being positioned in a nostril to provide direct administration to the lumen of the VNO. With a 1 ml air pulse, the MVA delivers 200 pg of the test compound to the VNO.
During the study, subjects spent one night in the sleep laboratory and underwent conventional polysomnography (PSG) only, during the first hour. The criteria for this short recording was based on previous findings showing that single dose VNO stimulation with the vomeropherins induced effects within one hour after stimulation. Before starting the recordings, each subject was questioned regarding distressing or extenuating events during that day that could contribute to sleep disruption. Times of last meal and physical exercise (if applicable) were also recorded. In order to determine whether the compound would affect daytime activities, or anterograde memory, judgment and motor skills were also evaluated both before going to sleep and in the morning. For this purpose, subjects were administered a maze test, a digit-symbol substitution test, a right and left manual coordination test (dot test), and a number repetition test as described in a previous publication (Monti, J. M., 1989, Slow Wave Sleep in Health and Disease. In: Waukier A., Dugovic C. and Radulovacki M. “Slow Wave Sleep.” New York, Raven Press. pp. […]).
Immediately prior to “lights out”, subjects were asked to lie in a supine position. The MVA was positioned in the right nostril, with its nozzle directed toward the right VNO opening. Later, the MVA was positioned in the left nostril for stimulation of the left VNO. […]

[2] = tested on: Human Subjects; test: Cognitive and motor performance tests before sleep and in the morning (maze, digit-symbol substitution, dot test, number repetition); conditions: night versus morning tests
Excerpt: During the study, subjects spent one night in the sleep laboratory and underwent conventional polysomnography (PSG) only, during the first hour. The criteria for this short recording was based on previous findings showing that single dose VNO stimulation with the vomeropherins induced effects within one hour after stimulation. Before starting the recordings, each subject was questioned regarding distressing or extenuating events during that day that could contribute to sleep disruption. Times of last meal and physical exercise (if applicable) were also recorded. In order to determine whether the compound would affect daytime activities, or anterograde memory, judgment and motor skills were also evaluated both before going to sleep and in the morning. […]
In the morning, all subjects completed a multiple-choice questionnaire regarding the following variables: sleep latency after last entry, estimated time sleeping, number of awakenings, and quality of sleep. General status at waking time was determined by marking on a 9 item analog scale inventory. […]

[3] = tested on: Human Subjects; test: Morning multiple-choice questionnaire and analog scale (sleep latency, duration, quality, status at waking)
Method: In the morning, all subjects completed a multiple-choice questionnaire regarding the following variables: sleep latency after last entry, estimated time sleeping, number of awakenings, and quality of sleep. General status at waking time was determined by marking on a 9 item analog scale inventory. In addition, all subjects were administered cognitive and motor performance tests identical to those received before bedtime.

[4] = tested on: Human Subjects; test: Subjective in-session self-evaluation at half-hour intervals (questionnaire and 3 item analog sleepiness scale); conditions: for Self-Perception of Sleepiness, score on sleepiness scale inventory: scale 0 to 10, higher numbers more sleepiness
Method: Immediately prior to “lights out”, subjects were asked to lie in a supine position. The MVA was positioned in the right nostril, with its nozzle directed toward the right VNO opening. Later, the MVA was positioned in the left nostril for stimulation of the left VNO. Two pulses of air or the test compound or placebo were administered to each VNO. The same procedure was repeated 30 minutes later, at which times the investigator would enter the room and wake the subject if they were asleep, so that the total dose of the vomeropherin being administered to each subject was 800 pg.
At each 30 minute sleep interruption, prior to the test compound application, each subject was given a short questionnaire to record their perception of whether they were asleep, estimated time spent awake, and number of awakenings. In addition, sleepiness was measured by a 3 item analog scale inventory (scored from 0 to 10, higher numbers indicating more sleepiness) that included: a) readiness to get back to sleep; b) degree of anxiety and c) self rated level of sleepiness. […] Recordings began at 10:00 p.m. and lasted until 6:00 a.m. of the following day. Frontal, parietal and occipital electroencephalograms (EEG), electrooculograms, and electromyograms were recorded during the first hour. These recordings were coded and scored blind for non-rapid eye movement sleep latency from “lights out” to the appearance of the first minute of Stage 1 sleep, total wake time, wake time after sleep onset, and total sleep time. Sleep stages were assigned according to the criteria of Rechtschaffen and Kales (1968). All variables were scored separately for each 30-minute interval. Number of awakenings was tallied for the entire hour of recording.

[5] = morning questionnaire, latency after last entry, 5 subjects per group
[6] = morning questionnaire, 5 subjects per group

For CC(=O)Oc1ccc2c(c1)CC[C@@H]1[C@@H]2CC[C@]2(C)C=CC[C@@H]12 [Test Compound, estra-1,3,5(10),16-tetraen-3-yl acetate], the “Overall effect on sleep and arousal” value [1] was “possible psychostimulant effect”, the “Overall effect on sleep and arousal” value ([1]; listed as estra-1,3,5(10),16-tetraen-3-yl acetate) was “primary arousing effect” and the “Sleep Onset Latency (SOL), Mean” value ([1]; healthy young male adults, 5 per group, test compound to VNO by MVA, total 800 pg, first hour PSG, control group 16) was 21 min. For the same compound, the “Wake Time after Sleep Onset, Mean” value ([1]; healthy young male adults, 5 per group, test compound to VNO by MVA, total 800 pg, first hour PSG, control group 17.7) was 16.3 min, the “Total Sleep Time (TST), Mean” value ([1]; healthy young male adults, 5 per group, test compound to VNO by MVA, total 800 pg, first hour PSG, control group 26.0) was 14.3 min and the “Change in scores for anterograde memory, judgment or motor dexterity” value [2] was “Neither the control nor the test group revealed any changes in scores”. The “Sleep quality (disturbed or undisturbed)” value ([3]; classified by subjects in the morning) was “one subject in the test group defined their sleep as “disturbed””, the “Sleep Latencies <30 Minutes, number of subjects” value [3, 5] was 0 n and the “Sleep Latencies >30 minutes, number of subjects” value [3, 5] was 5 n. For the same compound, the “Sleep Duration 4-6 hours, number of subjects” value [3, 6] was 5, the “Sleep Duration 7-8 hours, number of subjects” value [3, 6] was 0 and the “Reported sleep latency after VNO stimulation” value ([3]; morning quiz, control group shorter than 30 minutes) was greater than 30 min. For the same compound, the “Condition at morning waking (index and visual analog scale)” value ([3]; versus placebo) was “did not show any difference”, the “Self-Perception of Sleepiness, score on sleepiness scale inventory” value ([4]; First entry (beginning study), placebo 7.5) was 6.0 and the “Self-Perception of Sleepiness, score on sleepiness scale inventory” value ([4]; Second entry (60 min. int), after dosing, placebo 8.9) was 3.2. For the same compound, the “Self-reported number of awakenings” value ([4]; self-evaluation at half-hour intervals, control group none to more than three) was “three or more” and the “Effect on subject's self-perception of sleep” value ([4]; self-reports compared with PSG data) was “does not impair a subject's self-perception of sleep”.

— US6544971B1, “Method of increasing alertness by administration of a vomeropherin, and vomeropherin-emitting alarm devices” (Pherin Pharmaceuticals, Inc., priority 2000, dated 2003)
